Experiments:
Format in all cases: in vivo
[1] = tested on: Barnyardgrass Echinochloa crus-galli; assay: Post-emergence greenhouse herbicide evaluation, barnyardgrass; conditions: 240 g ae/ha, 14 days after application, visual injury 0-100% vs untreated
Excerpt: (§1) Post-Emergence Application Methods for Herbicide Evaluations.
(§2) A peat based potting soil, Metro-mix 360, was used as the soil media for this test. Metro-mix is a growing medium consisting of 35 to 45% specially processed Coconut Coir Pith, 10 to 20% horticultural grade vermiculite, 15 to 25% processed Ash Bark, 20 to 30% choice Canadian Sphagnum Peat Moss and proprietary nutrients and other ingredients. Several seeds of each species were planted in 10 cm square pots and top watered twice daily. Plant material was propagated in the greenhouse at a constant temperature of 26 to 28° C. and 50 to 60% relative humidity. Natural light was supplemented with 1000-watt metal halide overhead lamps with an average illumination of 500 μE m^−2 s^−1 photosynthetic active radiation (PAR). Day length was 16 hours. Plant material was top-watered prior to treatment and sub-irrigated after treatment. Treatments were applied with a tracksprayer manufactured by Allen Machine Works. The sprayer utilized an 8003E spray nozzle, spray pressure of 262 kPa pressure and speed of 2.8 mph (4.5 km/h) to deliver 187 L/Ha. The nozzle height was 46 cm above the plant canopy. The growth stage of the various weed species ranged from 2 to 4 leaf. Treatments were replicated 3 times. Plants were returned to the greenhouse after treatment and sub-watered throughout the duration of the experiment. Plant material was fertilized twice weekly with Hoagland's fertilizer solution. Percent visual injury assessments were made on a scale of 0 to 100% as compared to the untreated control plants (where 0 is equal to no injury and 100 is equal to complete death of the plant).

[2] = tested on: Large Crabgrass Digitaria Sanguinalis; assay: Post-emergence greenhouse herbicide evaluation, large crabgrass; conditions: 240 g ae/ha, 14 days after application, visual injury 0-100% vs untreated
Excerpt: as §1, §2

[3] = tested on: Broadleaf Dock Rumex obtusifolia; assay: Post-emergence greenhouse herbicide evaluation, broadleaf dock; conditions: 560 g ae/ha, 14 days after application, visual injury 0-100% vs untreated
Excerpt: as §1, §2

Kochia Kochia scoparia = assay: Post-emergence greenhouse herbicide evaluation, kochia; conditions: 560 g ae/ha, 14 days after application, visual injury 0-100% vs untreated
Excerpt: as §1, §2

[4] = tested on: grapes (Vitis labrusca L.); assay: Volatility evaluation: injury to grapes from vapor exposure to treated wheat; conditions: wheat sprayed at 11200 g ae/ha, 24 hour vapor exposure at 40° C., evaluated 7 days after exposure
Excerpt: Methods for Evaluating the Volatility of 2,4-D Standards and Ionic Liquids of 2,4-D.
Four pots of wheat (Triticum aestivum L.) grown in 4 inch square pots were sprayed at 11200 g ae/ha with each of the different forms of 2,4-D. Treatments were applied with a tracksprayer manufactured by Allen Machine Works. The sprayer utilized an 8002E spray nozzle, spray pressure of 262 kPa pressure and speed of 1.5 mph (2.4 km/h) to deliver 187 L/Ha. The nozzle height was 46 cm above the plant canopy. The growth stage of the wheat was 1 to 2 leaf. The wheat plants were allowed to thoroughly dry to ensure that none of the spray solution was present when they were moved into a clean pot flat. A known sensitive species, grapes (Vitis labrusca L.) were placed at the opposite end of the flat. All of the pots were covered with a humidome with small ½ inch (1.27 cm) diameter holes cut into the end where the wheat was placed and a small box fan powered with a battery in the other end to pull air across the treated wheat plants and over the top of grapes. Plants were placed into a growth chamber with the temperature set at 40° C. with a 14 hour day and a 10 hour night cycle. A 24 hour exposure period was used after which the sensitive plants were then removed and placed in the greenhouse and evaluated for injury from vapor exposure to the treatments.

Row | Compound | % Control Barnyardgrass Echinochloa crus-galli [1] [%] | % Control Large Crabgrass Digitaria Sanguinalis [2] [%] | % Control Broadleaf Dock Rumex obtusifolia [3] [%] | % Control Kochia Kochia scoparia (Kochia Kochia scoparia) [%] | % Injury to grapes from vapor exposure [4] [%]
1 | CN(C)Cc1ccccc1.C[C@@H](Oc1ccc(Oc2ccc(C#N)cc2F)cc1)C(=O)O [Compound 4k] | 100 | 85 |  |  | 
2 | CCCCOC(=O)[C@H](C)Oc1ccc(Oc2ccc(C#N)cc2F)cc1 [cyhalofop Bu-ester, reference compound] | 100 | 92 |  |  | 
3 | CCCCCCN(C)C.O=C(O)COc1nc(Cl)c(Cl)cc1Cl [Compound 4b] |  |  | 49 | 96 | 
4 | CCCCCCN(C)C.O=C(O)COc1ccc(Cl)cc1Cl [Compound 3b] |  |  | 73 | 97 | 
5 | CCCCCCCCn1ccnc1.O=C(O)COc1ccc(Cl)cc1Cl [Compound 1c] |  |  | 82 | 97 | 
6 | CCCCCCCCN(C)C.O=C(O)COc1ccc(Cl)cc1Cl [Compound 3c] |  |  |  |  | 0
7 | CCN(CC)CC.O=C(O)COc1nc(Cl)c(Cl)cc1Cl [Triclopyr triethylamine (TEA), Triclopyr triethylamine, reference compound] |  |  | 40 | 93 | 
8 | CC(Oc1ccc(Oc2ccc(C#N)cc2F)cc1)C(=O)O.CCCCCCCCCCCCCCN(C)C (stereo not shown) [Compound 4j] | 100 | 82 |  |  | 
9 | CCCCOCCOC(=O)COc1ccc(Cl)cc1Cl [2,4-D butoxyethylester (BEE), 2,4-D butoxyethylester, reference compound] |  |  | 96 | 95 | 100
10 | CCCCOCCOC(=O)COc1nc(Cl)c(Cl)cc1Cl [Triclopyr butoxyethylester (BEE), Triclopyr butoxyethylester, reference compound] |  |  | 79 | 95 | 
11 | CCCCCCCCCCCCCCCCN(C)C.O=C(O)COc1ccc(Cl)cc1Cl [Compound 3g] |  |  |  |  | 0
12 | CCCCCCCCN(C)C.C[C@@H](Oc1ccc(Oc2ccc(C#N)cc2F)cc1)C(=O)O [Compound 4i] | 100 | 78 |  |  | 
13 | CCCCCCCCn1ccnc1.O=C(O)COc1nc(Cl)c(Cl)cc1Cl [Compound 2c] |  |  | 52 | 92 | 
14 | CNC.O=C(O)COc1ccc(Cl)cc1Cl [2,4-D dimethylamine (DMA), 2,4-D dimethylamine, reference compound] |  |  | 40 | 76 | 78

— US20080207452A1, “Ionic liquids derived from herbicidal carboxylic acids and certain trialkylamines or heteroarylamines” (Dow AgroSciences LLC, priority 2007, published 2008)
